Legend:
[1] = target: BSA (Bos taurus, UniProt P02769); assay: Peptide-BSA conjugate ELISA, control wells coated only with blocking solution (BSA); type: binding; settings: biotinylated peptide-BSA conjugate, BSA-blocked wells, no mAb
Description: (§1) • mAb 735 and 30H12 • MaxiSorp™ plates (NUNC) for coating the antibody: ELISA plates • microtiter plates (NUNC) for peptide dilution: dilution plates • Biotinylated peptide-BSA conjugates prepared as above described • Extravidin alkaline phosphatase-avidin conjugate (SIGMA E2636) • p-nitrophenyl-phosphatase alkaline substrate (SIGMA 104-105) 2.1.2) Buffers • PBS pH 7.4 • Blocking solution: 0.5% BSA in PBS • TBS • TBST: TBS containing 0.05% Tween 20 • Extravidin alkaline phosphatase-avidin conjugate solution: 1/5000 in TBST • Alkaline phosphatase substrate solution; 1 tablet in 5 ml 50 mM NaHCO3, 1 mM MgCl2 solution, pH 9.6. • mixed competitor solution: 1 mM colominic acid with a peptide-BSA conjugate gradient in TBST 2.1.3) Method
(§2) Maxisorp™ plate wells were coated with 100 μl mAb solution (25 μg/ml) for 2 h at room temperature. The control wells of the ELISA plates were only coated with the blocking solution. In parallel, the peptide-BSA conjugate dilution plates were blocked with 200 μl blocking solution for 2 h. The antibody coated wells and the control wells were blocked with 200 μl blocking solution for 1 h. In parallel the peptide-BSA conjugate dilution plates were washed 6 times with TBST and 120 μl TBST was added to the wells. An appropriate volume of peptide-BSA conjugate solution was added to the first well and the volume adjusted to 140 μl with TBST. The peptide-BSA conjugate in well one was diluted in the ratio 1/7 by taking 20 μl out of the first well and transferring into the second also to achieve the total volume of 140 μl. This was repeated for the remaining wells. The peptide-BSA conjugate dilutions for the control wells were done the same way. The blocked ELISA plates were washed 6 times with TBST and the peptide-BSA conjugate dilutions or 100 μl of the mixed competitor solution was added to the wells. After incubation for 1 h, the wells were washed 10 times with TBST and 100 μl of the alkaline phosphatase substrate solution was added to the wells. The plates were read out after 10 to 60 min using a microplate reader at 405 nm.
(§3) The specificity of peptide p21 (SEQ ID NO: 1) was investigated in a competition ELISA using biotinylated p21-BSA conjugate and a randomized variant of p21 (p22) conjugate as a control. The results presented in Tables X and XI are expressed as percentage of binding by comparison with peptide p21 at the highest concentration (9.45 10^-5 M) which corresponds to 100% binding.

[2] = system: mAb 735; assay: Competitive ELISA of biotinylated peptide-BSA conjugates on anti-PSA mAb; type: binding; settings: for Binding of peptide to mAb 735 in competitive ELISA (percentage of binding): biotinylated peptide-BSA conjugate
Description: as §1, with “[…])” for “pH 9.6. • mixed competitor solution: 1 mM colominic acid with a peptide-BSA conjugate gradient in TBST 2.1.3)”
as §2, §3

[3] = peptide-BSA conjugate, in words

Chain of BSA (P02769 25-607): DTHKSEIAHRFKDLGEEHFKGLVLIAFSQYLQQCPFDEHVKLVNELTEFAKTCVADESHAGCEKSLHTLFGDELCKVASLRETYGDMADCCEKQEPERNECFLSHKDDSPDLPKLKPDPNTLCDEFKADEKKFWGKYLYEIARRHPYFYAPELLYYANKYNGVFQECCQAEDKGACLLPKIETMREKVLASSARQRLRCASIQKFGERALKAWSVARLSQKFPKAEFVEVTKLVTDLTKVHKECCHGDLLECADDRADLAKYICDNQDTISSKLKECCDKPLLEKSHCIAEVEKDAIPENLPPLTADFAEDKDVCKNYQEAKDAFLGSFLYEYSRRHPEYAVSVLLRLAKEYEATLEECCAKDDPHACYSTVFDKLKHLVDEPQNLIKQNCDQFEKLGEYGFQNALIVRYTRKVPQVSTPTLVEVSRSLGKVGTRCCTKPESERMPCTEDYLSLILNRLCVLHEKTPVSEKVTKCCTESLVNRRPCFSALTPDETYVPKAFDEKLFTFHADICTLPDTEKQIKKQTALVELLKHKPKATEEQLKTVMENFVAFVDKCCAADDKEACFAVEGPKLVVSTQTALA

Binding of peptide to BSA control wells (percentage of binding) ([1]; peptide 1.62 10^−9 M): 0 ± 0%
Binding of peptide to BSA control wells (percentage of binding) ([1]; peptide 1.67 10^−5 M): 1 ± 1%
Binding of peptide to BSA control wells (percentage of binding) ([1]; peptide 2.86 10^−9 M): 0 ± 0%
Binding of peptide to BSA control wells (percentage of binding) ([1]; peptide 2.94 10^−6 M): 0 ± 0%
Binding of peptide to BSA control wells (percentage of binding) ([1]; peptide 5.04 10^−10 M): 0 ± 0%
Binding of peptide to BSA control wells (percentage of binding) ([1]; peptide 5.20 10^−7 M): 0 ± 0%
Binding of peptide to BSA control wells (percentage of binding) ([1]; peptide 8.89 10^−11 M): 0 ± 0%
Binding of peptide to BSA control wells (percentage of binding) ([1]; peptide 9.27 10^−8 M): 0 ± 0%
Binding of peptide to BSA control wells (percentage of binding) ([1]; peptide 9.45 10^−5 M): 3 ± 1%
Binding of peptide to mAb 735 in competitive ELISA (percentage of binding) ([2]; peptide 1.62 10^−9 M, + chondroitin sulfate C): 2 ± 0%
Binding of peptide to mAb 735 in competitive ELISA (percentage of binding) ([2]; peptide 1.62 10^−9 M, + colominic acid 1 mM): 0 ± 0%
Binding of peptide to mAb 735 in competitive ELISA (percentage of binding) ([2]; peptide 1.62 10^−9 M, no competitor): 0 ± 0%
Binding of peptide to mAb 735 in competitive ELISA (percentage of binding) ([2]; peptide 1.67 10^−5 M, + chondroitin sulfate C): 8 ± 1%
Binding of peptide to mAb 735 in competitive ELISA (percentage of binding) ([2]; peptide 1.67 10^−5 M, + colominic acid 1 mM): 5 ± 0%
Binding of peptide to mAb 735 in competitive ELISA (percentage of binding) ([2]; peptide 1.67 10^−5 M, no competitor): 9 ± 0%
Binding of peptide to mAb 735 in competitive ELISA (percentage of binding) ([2]; peptide 2.86 10^−9 M, + chondroitin sulfate C): 2 ± 0%
Binding of peptide to mAb 735 in competitive ELISA (percentage of binding) ([2]; peptide 2.86 10^−9 M, + colominic acid 1 mM): 0 ± 0%
Binding of peptide to mAb 735 in competitive ELISA (percentage of binding) ([2]; peptide 2.86 10^−9 M, no competitor): 0 ± 0%
Binding of peptide to mAb 735 in competitive ELISA (percentage of binding) ([2]; peptide 2.94 10^−6 M, + chondroitin sulfate C): 3 ± 1%
Binding of peptide to mAb 735 in competitive ELISA (percentage of binding) ([2]; peptide 2.94 10^−6 M, + colominic acid 1 mM): 0 ± 0%
Binding of peptide to mAb 735 in competitive ELISA (percentage of binding) ([2]; peptide 2.94 10^−6 M, no competitor): 1 ± 0%
Binding of peptide to mAb 735 in competitive ELISA (percentage of binding) ([2]; peptide 5.04 10^−10 M, + chondroitin sulfate C): 2 ± 0%
Binding of peptide to mAb 735 in competitive ELISA (percentage of binding) ([2]; peptide 5.04 10^−10 M, + colominic acid 1 mM): 0 ± 0%
Binding of peptide to mAb 735 in competitive ELISA (percentage of binding) ([2]; peptide 5.04 10^−10 M, no competitor): 0 ± 0%
Binding of peptide to mAb 735 in competitive ELISA (percentage of binding) ([2]; peptide 5.20 10^−7 M, + chondroitin sulfate C): 2 ± 0%
Binding of peptide to mAb 735 in competitive ELISA (percentage of binding) ([2]; peptide 5.20 10^−7 M, + colominic acid 1 mM): 0 ± 0%
Binding of peptide to mAb 735 in competitive ELISA (percentage of binding) ([2]; peptide 5.20 10^−7 M, no competitor): 0 ± 0%
Binding of peptide to mAb 735 in competitive ELISA (percentage of binding) ([2]; peptide 8.89 10^−11 M, + chondroitin sulfate C): 2 ± 0%
Binding of peptide to mAb 735 in competitive ELISA (percentage of binding) ([2]; peptide 8.89 10^−11 M, + colominic acid 1 mM): 0 ± 0%
Binding of peptide to mAb 735 in competitive ELISA (percentage of binding) ([2]; peptide 8.89 10^−11 M, no competitor): 0 ± 0%
Binding of peptide to mAb 735 in competitive ELISA (percentage of binding) ([2]; peptide 9.27 10^−8 M, + chondroitin sulfate C): 2 ± 1%
Binding of peptide to mAb 735 in competitive ELISA (percentage of binding) ([2]; peptide 9.27 10^−8 M, + colominic acid 1 mM): 0 ± 0%
Binding of peptide to mAb 735 in competitive ELISA (percentage of binding) ([2]; peptide 9.27 10^−8 M, no competitor): 0 ± 0%
Binding of peptide to mAb 735 in competitive ELISA (percentage of binding) ([2]; peptide 9.45 10^−5 M, + chondroitin sulfate C): 29 ± 0%
Binding of peptide to mAb 735 in competitive ELISA (percentage of binding) ([2]; peptide 9.45 10^−5 M, + colominic acid 1 mM): 27 ± 0%
Binding of peptide to mAb 735 in competitive ELISA (percentage of binding) ([2]; peptide 9.45 10^−5 M, no competitor): 32 ± 1%
Binding of peptide to mAb 735 [2, 3]: no binding
Effect of colominic acid or chondroitin sulfate C on binding to mAb 735 [2, 3]: no differences were observed
Sequence: PDHIFVFSPDLP [p22, reference compound]
